Test [1] concerns the target T1, Bovine serum albumin (BSA, fraction V) (Bos taurus, UniProt P02769).
T1 construct: gene ALB; mature native serum albumin, 585 residues, fraction V from Roche; heat/acid-induced amyloid aggregation
Put plainly: ThT fluorescence, BSA fibrillation at […]. Type of test: biochemical. Conditions: BSA 100 μmol/L, glycine buffer pH 3, NaCl 100 mM, 65°C.

The target of test [2] is T1, Bovine serum albumin (BSA, fraction V). Put plainly: ThT fluorescence, inhibition of BSA amyloid aggregation. Type of test: biochemical.

The source of these data is publication PMC4556714, “Drug Development in Conformational Diseases: A Novel Family of Chemical Chaperones that Bind and Stabilise Several Polymorphic Amyloid Structures” (PLoS ONE, 2015).

T1 sequence (P02769 25-607): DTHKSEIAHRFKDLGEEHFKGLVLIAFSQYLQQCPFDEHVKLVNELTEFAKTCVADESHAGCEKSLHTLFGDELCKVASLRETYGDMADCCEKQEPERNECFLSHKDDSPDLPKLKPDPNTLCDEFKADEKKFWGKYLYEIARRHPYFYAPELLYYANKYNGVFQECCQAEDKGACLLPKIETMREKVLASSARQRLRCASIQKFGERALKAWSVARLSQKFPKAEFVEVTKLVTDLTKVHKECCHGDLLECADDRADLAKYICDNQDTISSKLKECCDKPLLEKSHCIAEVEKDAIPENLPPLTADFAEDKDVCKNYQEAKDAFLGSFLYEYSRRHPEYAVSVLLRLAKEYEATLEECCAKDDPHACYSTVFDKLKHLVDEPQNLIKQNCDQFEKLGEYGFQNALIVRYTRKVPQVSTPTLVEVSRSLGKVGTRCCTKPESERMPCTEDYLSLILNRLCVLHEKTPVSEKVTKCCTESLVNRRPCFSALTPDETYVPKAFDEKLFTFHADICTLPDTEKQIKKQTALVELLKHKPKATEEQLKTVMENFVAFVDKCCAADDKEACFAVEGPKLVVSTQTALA

On to `CSC(=S)NCCNC(=O)CCC(=O)Nc1cccc2ccccc12` [B, methyl (2-{[4-(1-naphthylamino)-4-oxobutanoyl]amino}ethyl) dithiocarbamate], for which the “% ThT fluorescence change at 100 μmol/L” value in test [1] is “chaperones A, C, D, B and E had a strong inhibitory effect on BSA fibrillation”.

`NCCCCNC(=O)CCC(=O)Nc1cccc2ccccc12` [G, N-(4-aminobutyl)-N'-1-naphthylsuccinamide]: the “% ThT fluorescence change at 100 μmol/L” value in test [1] (aggregation enhancer) was “At the same concentrations, the chaperones F and G increased BSA fibrillation”.

In general, IC50 refers to the concentration that inhibits the measured activity by half. A lower IC50 goes with inhibition by little substance. Compound `O=C(O)CCNC(=O)CCC(=O)Nc1cccc2ccccc12` [D, N-[4-(1-naphthylamino)-4-oxobutanoyl]-β-alanine] showed an IC50 in test [2] of 6.37 µM.

In test [2], `O=C(CCC(=O)Nc1cccc2ccccc12)NCCNC(=O)CCC(=O)Nc1cccc2ccccc12` [F, N3,N3'-ethane-1,2-dyilbis(N1-1-naphthylsuccinamide)] gave an IC50 of 40 µM. This IC50 lies about 6.3-fold higher than the previous one.

In turn, `NCCNC(=O)CCC(=O)Nc1cccc2ccccc12` [A, N-(2-aminoethyl)-N'-1-naphthylsuccinamide] gave a half-inhibitory concentration (IC50) in test [2] of 6.34 µM.

For the compound `O=C(O)CCCCCNC(=O)CCC(=O)Nc1cccc2ccccc12` [E, 6-{[4-(1-naphthylamino)-4-oxobutanoyl]amino} hexanoic acid], the IC50 in test [2] amounted to 5.38 µM.
